A short description of the series: log P determination by HPLC (EEC Directive 79/831 Annex V. A8). It is filed as physicochemical. As to the method:
The log P values were determined in accordance with EEC Directive 79/831 Annex V. A8 by HPLC (gradient method, acetonitrile/0.1% strength aqueous phosphoric acid).
As usually defined, the chromatographic logP is lipophilicity estimated from chromatographic retention. In the case of `CON=C(C(C)=NN=Cc1ccccc1/C(=N/OC)C1=NOCCO1)C(C)C` [Example 12], the chromatographic logP was determined as 3.92.

In turn, `CON=C(C)C(C)=NN=Cc1ccccc1C(=NOC)C1=NOCCO1` [Example 4, 3-({2-[(5,6-dihydro-[1,4,2]dioxazin-3-yl)-methoxyimino-methyl]-benzylidene}-hydrazono)-butan-2-one O-methyl oxime] returned a chromatographic logP of 3.17.

`CON=C(C1=NOCCO1)c1ccccc1C=NN=C(C)c1ccc(C(F)(F)F)cc1` [Example 2, (5,6-dihydro-[1,4,2]dioxazin-3-yl)-(2-{[1-(4-trifluoromethylphenyl)-ethylidene]-hydrazonomethyl}-phenyl)-methanone O-methyl oxime] yielded a chromatographic logP of 3.8. Compound `CCON=C(C)C(C)=NN=Cc1ccccc1C(=NOC)C1=NOCCO1` [Example 17] returned a chromatographic logP of 3.61. Under `CCC(=NOC)C(C)=NN=Cc1ccccc1/C(=N/OC)C1=NOCCO1` [Example 13] stands 3.58; under `CON=C(C1=NOCCO1)c1ccccc1C=NN=C(C)c1cccc(C(F)(F)F)c1` [Example 1, (5,6-dihydro-[1,4,2]dioxazin-3-yl)-(2-{[1-(3-trifluoromethylphenyl)-ethylidene]-hydrazonomethyl}-phenyl)-methanone O-methyl oxime], 3.8.
